In general, IC50 refers to the midpoint of a concentration-inhibition curve. A high value points to weaker potency.

The record followed here is US20130303509A1, “NAMPT INHIBITORS” (AbbVie Inc., priority 2012, published 2013).

The test system of the assay is PC3 cells. Put plainly: NAMPT Cell Proliferation Assay. To be noted: Homo sapiens, PC-3, 120 h, 5 days incubation, cell viability by Cell Titer Glo. In kind it is cell-based. The essentials: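 Five-day CellTiter-Glo viability readout in PC3 cells grown in RPMI/10% heat-inactivated FBS. Compounds added after overnight attachment as a 10-fold dilution series, […]. Percent inhibition fitted to sigmoidal dose-response to derive IC50.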
For `CC(C)(C(=O)N1CCC(c2ccc(NC(=O)C3CN(c4ccnnc4)C3)cc2)CC1)c1ccccc1` [Example 546, N-{4-[1-(2-methyl-2-phenylpropanoyl)piperidin-4-yl]phenyl}-1-(pyridazin-4-yl)azetidine-3-carboxamide], the 50% inhibitory concentration (IC50) was 1.41 nM. As for `O=C(Nc1ccc(C2CCN(C(=O)c3ccc(F)cc3F)CC2)cc1)C1CN(c2ccnnc2)C1` [Example 547, N-{4-[1-(2,4-difluorobenzoyl)piperidin-4-yl]phenyl}-1-(pyridazin-4-yl)azetidine-3-carboxamide], the figure is 3.02 nM; as for `COCC(=O)N1CCC(c2ccc(NC(=O)C3CN(c4ccnnc4)C3)cc2)CC1` [Example 548, N-{4-[1-(methoxyacetyl)piperidin-4-yl]phenyl}-1-(pyridazin-4-yl)azetidine-3-carboxamide], 64.9 nM. In turn, `O=C(Nc1ccc(C2CCN(C(=O)c3cccs3)CC2)cc1)C1CN(c2ccnnc2)C1` [Example 549, 1-(pyridazin-4-yl)-N-{4-[1-(thiophen-2-ylcarbonyl)piperidin-4-yl]phenyl}azetidine-3-carboxamide] had an IC50 of 0.67 nM.

As to `O=C(Nc1ccc(C2CCN(C(=O)Cc3cccc(C(F)(F)F)c3)CC2)cc1)C1CN(c2ccnnc2)C1` [Example 550, 1-(pyridazin-4-yl)-N-[4-(1-{[3-(trifluoromethyl)phenyl]acetyl}piperidin-4-yl)phenyl]azetidine-3-carboxamide], the IC50 was found to be 8.21 nM. `O=C(Nc1ccc(C2CCN(C(=O)c3ccccc3F)CC2)cc1)C1CN(c2ccnnc2)C1` [Example 551, N-{4-[1-(2-fluorobenzoyl)piperidin-4-yl]phenyl}-1-(pyridazin-4-yl)azetidine-3-carboxamide]: half-maximal inhibition (IC50) was put at 0.48 nM. The value for `O=C(Nc1ccc(C2CCN(C(=O)c3cc(F)cc(F)c3)CC2)cc1)C1CN(c2ccnnc2)C1` [Example 552, N-{4-[1-(3,5-difluorobenzoyl)piperidin-4-yl]phenyl}-1-(pyridazin-4-yl)azetidine-3-carboxamide] was 3.32 nM; that for `O=C(Nc1ccc(C2CCN(C(=O)c3ccc(C(F)(F)F)cc3)CC2)cc1)C1CN(c2ccnnc2)C1` [Example 553, 1-(pyridazin-4-yl)-N-(4-{1-[4-(trifluoromethyl)benzoyl]piperidin-4-yl}phenyl)azetidine-3-carboxamide] was 44.1 nM; that for `O=C(Nc1ccc(C2CCN(C(=O)c3cccc(F)c3)CC2)cc1)C1CN(c2ccnnc2)C1` [Example 554, N-{4-[1-(3-fluorobenzoyl)piperidin-4-yl]phenyl}-1-(pyridazin-4-yl)azetidine-3-carboxamide] was 2.63 nM. The value for `O=C(Nc1ccc(C2CCN(C(=O)c3ccc(OC(F)(F)F)cc3)CC2)cc1)C1CN(c2ccnnc2)C1` [Example 555, 1-(pyridazin-4-yl)-N-(4-{1-[4-(trifluoromethoxy)benzoyl]piperidin-4-yl}phenyl)azetidine-3-carboxamide] was 23.9 nM; that for `CC(C)CC(=O)N1CCC(c2ccc(NC(=O)C3CN(c4ccnnc4)C3)cc2)CC1` [Example 556, N-{4-[1-(3-methylbutanoyl)piperidin-4-yl]phenyl}-1-(pyridazin-4-yl)azetidine-3-carboxamide] was 5.98 nM; that for `O=C(Nc1ccc(C2CCN(C(=O)CC(F)(F)F)CC2)cc1)C1CN(c2ccnnc2)C1` [Example 557, 1-(pyridazin-4-yl)-N-{4-[1-(3,3,3-trifluoropropanoyl)piperidin-4-yl]phenyl}azetidine-3-carboxamide] was 10.2 nM. As for `O=C(Nc1ccc(C2CCN(C(=O)C(F)(F)c3ccccc3)CC2)cc1)C1CN(c2ccnnc2)C1` [Example 558, N-(4-{1-[difluoro(phenyl)acetyl]piperidin-4-yl}phenyl)-1-(pyridazin-4-yl)azetidine-3-carboxamide], the figure is 0.66 nM; as for `CC(C)(C)C(=O)N1CCC(c2ccc(NC(=O)C3CN(c4ccnnc4)C3)cc2)CC1` [Example 559, N-{4-[1-(2,2-dimethylpropanoyl)piperidin-4-yl]phenyl}-1-(pyridazin-4-yl)azetidine-3-carboxamide], 1.33 nM. Take `O=C(Nc1ccc(C2CCN(C(=O)C3CCC(F)(F)CC3)CC2)cc1)C1CN(c2ccnnc2)C1` [Example 560, N-(4-{1-[(4,4-difluorocyclohexyl)carbonyl]piperidin-4-yl}phenyl)-1-(pyridazin-4-yl)azetidine-3-carboxamide]: the IC50 was 5.85 nM. As for `O=C(Nc1ccc(C2CCN(C(=O)Cc3ccc(OC(F)(F)F)cc3)CC2)cc1)C1CN(c2ccnnc2)C1` [Example 561, 1-(pyridazin-4-yl)-N-[4-(1-{[4-(trifluoromethoxy)phenyl]acetyl}piperidin-4-yl)phenyl]azetidine-3-carboxamide], the figure is 62.2 nM. As for `O=C(Nc1ccc(C2CCN(C(=O)c3cccc(OC(F)(F)F)c3)CC2)cc1)C1CN(c2ccnnc2)C1` [Example 562, 1-(pyridazin-4-yl)-N-(4-{1-[3-(trifluoromethoxy)benzoyl]piperidin-4-yl}phenyl)azetidine-3-carboxamide], the figure is 9.45 nM; as for `O=C(Nc1ccc(C2CCN(C(=O)Cc3ccc(C(F)(F)F)cc3)CC2)cc1)C1CN(c2ccnnc2)C1` [Example 563, 1-(pyridazin-4-yl)-N-[4-(1-{[4-(trifluoromethyl)phenyl]acetyl}piperidin-4-yl)phenyl]azetidine-3-carboxamide], 24.2 nM.

In turn, `O=C(Nc1ccc(S(=O)(=O)C2CCN(C(=O)c3cccc(Cl)c3)CC2)cc1)C1CN(c2cccnn2)C1` [Example 564, N-(4-{[1-(3-chlorobenzoyl)piperidin-4-yl]sulfonyl}phenyl)-1-(pyridazin-3-yl)azetidine-3-carboxamide] had a 50% inhibitory concentration (IC50) of 79.2 nM. As for `CC(C)(C)c1ccc(C(=O)N2CCC(S(=O)(=O)c3ccc(NC(=O)C4CN(c5cccnn5)C4)cc3)CC2)cc1` [Example 565, N-(4-{[1-(4-tert-butylbenzoyl)piperidin-4-yl]sulfonyl}phenyl)-1-(pyridazin-3-yl)azetidine-3-carboxamide], the figure is 74.1 nM; as for `COc1ccc(C(=O)N2CCC(S(=O)(=O)c3ccc(NC(=O)C4CN(c5cccnn5)C4)cc3)CC2)cc1` [Example 566, N-(4-{[1-(4-methoxybenzoyl)piperidin-4-yl]sulfonyl}phenyl)-1-(pyridazin-3-yl)azetidine-3-carboxamide], 82.2 nM.

In the case of `Cc1ccc(C(=O)N2CCC(S(=O)(=O)c3ccc(NC(=O)C4CN(c5cccnn5)C4)cc3)CC2)cc1` [Example 567, N-(4-{[1-(4-methylbenzoyl)piperidin-4-yl]sulfonyl}phenyl)-1-(pyridazin-3-yl)azetidine-3-carboxamide], the IC50 came out at 76.5 nM.

`O=C(Nc1ccc(S(=O)(=O)C2CCN(C(=O)C3CCCCC3)CC2)cc1)C1CN(c2cccnn2)C1` [Example 568, N-(4-{[1-(cyclohexylcarbonyl)piperidin-4-yl]sulfonyl}phenyl)-1-(pyridazin-3-yl)azetidine-3-carboxamide]: the IC50 is 48.2 nM. As for `O=C(Nc1ccc(S(=O)(=O)C2CCN(C(=O)CC3CC3)CC2)cc1)C1CN(c2cccnn2)C1` [Example 569, N-(4-{[1-(cyclopropylacetyl)piperidin-4-yl]sulfonyl}phenyl)-1-(pyridazin-3-yl)azetidine-3-carboxamide], the figure is 207 nM. `COc1ccccc1C(=O)N1CCC(S(=O)(=O)c2ccc(NC(=O)C3CN(c4cccnn4)C3)cc2)CC1` [Example 570, N-(4-{[1-(2-methoxybenzoyl)piperidin-4-yl]sulfonyl}phenyl)-1-(pyridazin-3-yl)azetidine-3-carboxamide] came in with an IC50 of 631 nM.

For the compound `CC[C@H](C(=O)N1CCC(S(=O)(=O)c2ccc(NC(=O)C3CN(c4cccnn4)C3)cc2)CC1)c1ccccc1` [Example 571, N-[4-({1-[(2S)-2-phenylbutanoyl]piperidin-4-yl}sulfonyl)phenyl]-1-(pyridazin-3-yl)azetidine-3-carboxamide], the IC50 amounted to 118 nM. The value for `CC(C)c1ccc(C(=O)N2CCC(S(=O)(=O)c3ccc(NC(=O)C4CN(c5cccnn5)C4)cc3)CC2)cc1` [Example 572, N-[4-({1-[4-(propan-2-yl)benzoyl]piperidin-4-yl}sulfonyl)phenyl]-1-(pyridazin-3-yl)azetidine-3-carboxamide] was 59.8 nM.

`O=C(Nc1ccc(S(=O)(=O)C2CCN(C(=O)c3ccc(Cl)cc3)CC2)cc1)C1CN(c2cccnn2)C1` [Example 573, N-(4-{[1-(4-chlorobenzoyl)piperidin-4-yl]sulfonyl}phenyl)-1-(pyridazin-3-yl)azetidine-3-carboxamide]: the IC50 worked out at 81.9 nM.

The compound `O=C(Nc1ccc(S(=O)(=O)C2CCN(C(=O)c3ccccc3)CC2)cc1)C1CN(c2cccnn2)C1` [Example 574, N-{4-[(1-benzoylpiperidin-4-yl)sulfonyl]phenyl}-1-(pyridazin-3-yl)azetidine-3-carboxamide] gave an IC50 of 55.3 nM.

`O=C(Nc1ccc(S(=O)(=O)C2CCN(C(=O)CCC(F)(F)F)CC2)cc1)C1CN(c2cccnn2)C1` [Example 575, 1-(pyridazin-3-yl)-N-(4-{[1-(4,4,4-trifluorobutanoyl)piperidin-4-yl]sulfonyl}phenyl)azetidine-3-carboxamide] returned an IC50 of 269 nM. As for `O=C(Nc1ccc(S(=O)(=O)C2CCN(C(=O)c3cc(F)ccc3F)CC2)cc1)C1CN(c2cccnn2)C1` [Example 576, N-(4-{[1-(2,5-difluorobenzoyl)piperidin-4-yl]sulfonyl}phenyl)-1-(pyridazin-3-yl)azetidine-3-carboxamide], the figure is 84.8 nM; as for `O=C(Nc1ccc(S(=O)(=O)C2CCN(C(=O)c3ccccc3F)CC2)cc1)C1CN(c2cccnn2)C1` [Example 577, N-(4-{[1-(2-fluorobenzoyl)piperidin-4-yl]sulfonyl}phenyl)-1-(pyridazin-3-yl)azetidine-3-carboxamide], 93 nM. The value for `Cc1ccccc1C(=O)N1CCC(S(=O)(=O)c2ccc(NC(=O)C3CN(c4cccnn4)C3)cc2)CC1` [Example 578, N-(4-{[1-(2-methylbenzoyl)piperidin-4-yl]sulfonyl}phenyl)-1-(pyridazin-3-yl)azetidine-3-carboxamide] was 88.7 nM.
